Data as given in patent US6702803B2, “Multi-step drug dosage forms” (Delsys Pharmaceutical Corporation, priority 2000, dated 2004).

Experiment: Compatibility study of Drug A with polymeric films (chromatographic purity on storage)
Type: physicochemical
Details: HPMC film, HPMC/HPC blend film, polyvinyl alcohol film; 25°C/60% RH, 40°C/75% RH (closed and open bottle), 50°C; 2 to 12 weeks
Procedure: Compatibility studies were conducted to assess the compatibility of Drug A with several polymeric films, to determine an appropriate material for the substrate. The films studied were an HPMC film, an. HPMC/HPC blend film, and a polyvinyl alcohol film. Each film was cut into pieces approximately 0.5 cm square and a piece of each film was placed into a glass bottle. Approximately 500 mg of Drug A was added to each bottle. The bottles were closed with Teflon lined plastic caps. Bottles of Drug A and each of the films separately were prepared and used as controls. The controls and drug/polymer samples were stored in a closed chamber under the following conditions, and tested at the indicated time periods: A) 25° C.±2° C.; 60% RH±5%; tested at 2,4 and 12 weeks; B) 40° C.±2° C.; 75% RH±5%; tested at 2,4 and 12 weeks; C) 40° C.±2 S^C; 75% RH±5%, open bottle; tested at 2, 4 and 12 weeks; and D) 50° C.±2*C.; no humidity control; tested at 2,4, and 8 weeks. At each time point, the samples were tested for chromatographic purity. […] Several dosage forms were made, as outlined in Table 1. “ER” refers to the extended release portion. “HPMC, HPC” refers to a hydroxypropyrmethyl cellulose, hydroxypropyl cellulose copolymer. “PEO” refers to a polyethylene oxide polymer, “HPMC, PEG” refers to hydroxypropylmethyl cellulose containing polyethylene glycol (PEG) plasticizer.

Structure (SMILES): Cc1nccn1CC1CCc2c(c3ccccc3n2C)C1=O (stereo not shown) [Drug A, 1,2,3,9-tetrahydro-9-methyl-3-[(2-methyl-1H-imidazol-1-yl)methyl]-4H-carbazol-4-one]
- change in chromatographic purity of Drug A stored with polymer films, compared to control samples: no changes in purity
